For this experiment, the system named is MDA-MB-468 breast. Briefly: NCI-60 cell line screen, 48 h.

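Interpolation was linear, between the two tested concentrations surrounding the appropriate level; five concentrations were tested over 48 hours in 96-well plates. GI50 = concentration required for 50% inhibition of growth. TGI denotes the concentration required for complete inhibition of growth.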

Consider `O=C(Nc1ccc(F)c(F)c1)c1cc(-c2ccc(F)cc2F)ccc1O`, for which the GI50 was 1120 nM and the TGI was determined as 4350 nM.

In the case of `Cc1cc2ncc(-c3cc4ccccc4c(N4CCN(C)CC4)n3)nc2cc1C`, the GI50 is 2120 nM and the TGI was 5110 nM.

Take `NC(=N\N=C/c1ccc(O)cc1)/C(N)=N\N=C/c1ccc(O)cc1`: the GI50 was > 100000 nM and the TGI is > 100000 nM.

On to `C/C(=C\c1ccn(-c2ccccc2N)n1)[C@@H]1C[C@@H]2O[C@]2(C)CCC[C@H](C)[C@H](O)[C@@H](C)C(=O)C(C)(C)[C@@H](O)CC(=O)O1`, for which the GI50 was 35.7 nM and the TGI stood at 732 nM.

For the compound `Cc1ccc(/C=C/c2c(C(=O)/C=C/c3ccccc3)c(C)nc3ccccc23)cc1`, the GI50 is 1800 nM and the TGI was determined as 3470 nM.

In the case of `Cc1cn2c(/C=C3/C(=O)Nc4c3ccc3ccccc43)c(C(F)(F)F)nc2s1`, the GI50 was 1460 nM and the TGI was > 100000 nM.

As for `O=C(O)C[C@H](O)C[C@H](O)/C=C/c1c(C2CC2)nc2ccccc2c1-c1ccc(F)cc1`, the GI50 was 2370 nM and the TGI came to 12100 nM.

In the case of `Oc1c(C(Nc2ccccc2Br)c2ccccc2)ccc2cccnc12` (configuration not stated), the GI50 is 1520 nM and the TGI is 6120 nM.

As for `COC(=O)c1c2c(c(C)[n+]([O-])c1C)C(=O)C=C(NCc1ccccc1)C2=O`, the GI50 was 266 nM and the TGI came to 1140 nM.

For the compound `O=C1CCc2c(sc3[nH]c(=S)n(-c4cc(C(F)(F)F)cc(C(F)(F)F)c4)c(=O)c23)C1`, the GI50 was 248 nM and the TGI came out at 768 nM.

For `C=C(C)[C@@H]1CCC=C2CC[C@]3(C)[C@H](CC[C@@H]4[C@@]5(C)CCCNC(C)(C)[C@@H]5CC[C@]43C)[C@H]21`, the GI50 was 1610 nM and the TGI amounted to 3100 nM.

For the compound `CC1=CC2C(C(O)CC3(C)C2CC(C)C32OCOC23COCO3)C2(C)C/C(=C/O)C(=O)C=C12` (configuration not stated), the GI50 is 1790 nM and the TGI is 3470 nM.

In the case of `CN(C)C(=O)Nc1nc2cc(Cl)c(Cl)cc2[nH]1`, the GI50 was 537 nM and the TGI was > 91000 nM.

Regarding `C=C(C)[C@@H]1CC[C@]2(COP(=O)(OCC)OCC)CC[C@]3(C)[C@H](CC[C@@H]4[C@@]5(C)CCCNC(C)(C)[C@@H]5CC[C@]43C)[C@@H]12`, the GI50 was 1390 nM and the TGI is 2910 nM.

Take `CN(C)c1ccc(Nc2c3ccccc3nc3ccccc23)cc1`: the GI50 is 632 nM and the TGI worked out at 2110 nM.

On to `COC(=O)c1cc(-c2ccccc2)[nH]c1N/N=C/c1c(Cl)cccc1Cl`, for which the GI50 was 185 nM.

Take `O=C(CCN1CCCC1)Nc1ccc2c(NCc3ccccc3)c3ccccc3nc2c1`: the GI50 is 274 nM and the TGI worked out at 1060 nM.

As to `Nc1ccn(C2CC(F)C(CO)O2)c(=O)n1` (configuration not stated), the GI50 was > 100000 nM and the TGI is > 100000 nM.

For the compound `CCn1c(=O)c2nc(SC)sc2n(-c2ccc(C)cc2)c1=O`, the GI50 is 62000 nM and the TGI is > 100000 nM.

For the compound `N#Cc1nc(-c2ccc(F)cc2)oc1S(=O)(=O)N1CCCCC1`, the GI50 is 1640 nM and the TGI was found to be 3300 nM.

As to `COc1c(C(C)=O)c(OCCCCOc2c(C(C)=O)c(OC)c3ccoc3c2OC)c(OC)c2occc12`, the GI50 was 2310 nM and the TGI was > 100000 nM.

`O=C(NCCN1CCOCC1)OCc1nc2nc(Cl)nc(N3CCOCC3)c2[nH]1`: the GI50 was 375 nM and the TGI was determined as 3790 nM.

For `COc1ccc(C(=O)Cn2c(C(=O)c3ccccc3)nc3ccccc32)cc1`, the GI50 was 817 nM and the TGI amounted to 5770 nM.

For the compound `CCOc1ccc2c(-c3ccnc(Nc4cc(OC)cc(C(F)(F)F)c4)n3)cnn2n1`, the GI50 was 836 nM and the TGI is > 20500 nM.

As to `COc1ccc([C@H](CC(=O)O)N2CCN(CCCc3ccc4c(n3)NCCC4)C2=O)cn1`, the GI50 is 111 nM and the TGI is 479 nM.

On to `C=CC(=O)N1CCC(c2ccc(C(N)=O)c(-c3ccc(Oc4ccccc4)cc3)n2)CC1`, for which the GI50 is 5760 nM and the TGI was determined as 49500 nM.

For `COc1cccc2c1C=CC1(O2)Oc2cccc(OC)c2C=C1C` (configuration not stated), the GI50 was 402 nM and the TGI is > 100000 nM.

Take `Cc1ccc(S(=O)(=O)Oc2ccc3c4c(c(=O)oc3c2)CCCCCC4)cc1`: the GI50 is 2040 nM and the TGI is > 100000 nM.

Turning to `CCCCCCCCCCCC1=NC(C)(C)CN1C(C)(C)CO`, the GI50 was 1820 nM and the TGI turned out to be 3670 nM.

Turning to `CCOC(=O)NC1CCc2cc(OC)c(OC)c(OC)c2-c2ccc(OC)c(=O)cc21` (configuration not stated), the GI50 was 548 nM and the TGI is > 100000 nM.

`Cc1ccc(/C=C(\C#N)c2cc3ccccc3n2C)cc1`: the GI50 was 406 nM and the TGI was > 100000 nM.

For the compound `CCC(=O)N1C/C(=C/c2ccc(Cl)cc2)C(=O)/C(=C/c2ccc(Cl)cc2)C1`, the GI50 is 704 nM and the TGI was determined as 2080 nM.

As for `Fc1ccc(-c2ncn(C3CCNCC3)c2-c2ccnc(Oc3ccc4c(c3)OCO4)n2)cc1`, the GI50 is 3190 nM and the TGI was 8020 nM.

Regarding `CNC(=O)NCC1OC(n2cnc3c(NC(=O)Nc4ccccc4)ncnc32)C(O[Si](C)(C)C(C)(C)C)C1O[Si](C)(C)C(C)(C)C` (configuration not stated), the GI50 is 3350 nM and the TGI was determined as 13900 nM.

For the compound `C=C1C(=O)O[C@H]2[C@H]1CC/C(COC(=O)CCCCCC(=O)OC/C1=C/CC[C@@]3(C)O[C@H]3[C@H]3OC(=O)C(=C)[C@@H]3CC1)=C\CC[C@@]1(C)O[C@@H]21`, the GI50 was 1840 nM and the TGI came out at 7100 nM.

As for `CC(C)(C)c1ccc(C(O)CCCN2CCC(C(O)(c3ccccc3)c3ccccc3)CC2)cc1` (configuration not stated), the GI50 was 1150 nM and the TGI turned out to be 2450 nM.

Turning to `COc1ccc2c(c1)nc(NNC(=O)c1cnccn1)c1cccn12`, the GI50 was 227 nM and the TGI is 1660 nM.

In the case of `COc1ccc(-c2cc(=O)n(-c3nc4ccccc4[nH]3)[nH]2)cc1OC`, the GI50 was 4300 nM and the TGI is 44700 nM.

For `O=[N+]([O-])c1cc[n+]([O-])c2ccccc12`, the GI50 is 135 nM and the TGI came to 324 nM.

Turning to `CCCCNNC(=O)c1ccc(Br)cc1`, the GI50 is 1710 nM and the TGI was > 50000 nM.

As to `c1ccc(-c2nn3c(c2-c2ccnc4cc(OCCN5CCOCC5)ccc24)CCC3)nc1`, the GI50 was 30900 nM and the TGI was > 100000 nM.

Consider `Cc1ccc2nc3ccccc3c(NCc3ccc(Cl)cc3)c2c1`, for which the GI50 is 1630 nM and the TGI was 6380 nM.

Consider `O=c1c2cc(C(F)(F)F)ccc2sc2c(NCCCNCCO)nc3ccccc3c12`, for which the GI50 was 1570 nM and the TGI came out at 3130 nM.

For the compound `COc1ccc(/C=C(/c2ccccc2)[N+](=O)[O-])c(OC)c1`, the GI50 was 1510 nM and the TGI is 3400 nM.

Source of the values: PubChem BioAssay (NCI).
